Experiments:
[1] = SPF mice feeding experiment (high-fat diet); format: in vivo, C57/B16J mice; conditions: for subcutaneous and visceral fat weight (inguinal subcutaneous, epididymis, perirenal) vs HFD group: 8 weeks; for weekly feed intake vs control HFD group: after 3-4 weeks; for body weight decrease compared with the HFD group: intragastric 0.75 mg-3 mg/Kg once/day, after 8 weeks
Description: C57/B16J mice were used in the SPF mice experiment. At the beginning of the experiment, C57/B16J mice were 4 weeks old, and each weighed 15±1 g. They were raised in a room with suitable temperature and humidity control, and the light/dark cycle was 12 hours, free diet and drinking water, and fed with standard laboratory feed (also known as growth and reproduction feed, item number SPFSLFZ003, product of SPF (Beijing) Experimental Animal Technology Co., Ltd.). After one week of adaptation, they were randomly assigned to a cage, 4-6 mice per cage.
A total of 12 treatments were set up, each with 2 cages of C57/B16J mice, and each treatment was subjected to different feeding treatments, specifically as follows:
NC group (i.e. normal diet group): fed with standard laboratory feed (also known as growth and reproduction feed, SPFSLFZ003), free diet and drinking water, each intragastrically administrated with 0.2 ml solvent daily for 8 weeks.
HFD group (i.e. high-fat diet group): fed with high-fat diet, the high-fat diet used was rodent feed (containing 60% fat, D12492, formula reference Le Roy, T., et al. Dysosmobacter welbionis is a newly isolated human commensal bacterium preventing diet-induced obesity and metabolic disorders in mice. Gut (2021).), free diet and drinking water, each intragastrically administrated with 0.2 ml solvent daily for 8 weeks.
(§1) D1 group (i.e. high-fat diet+D1 intragastric administration group): fed with high-fat diet, free diet and drinking water. Intragastrically administrated with synthetic D1, 0.75 mg-3 mg/Kg body weight, 0.2 ml, once/day for 8 weeks.
(§2) D2 group (i.e. high-fat diet+D2 intragastric administration group): fed with high-fat diet, free diet and drinking water. Intragastrically administrated with synthetic D2, 0.75 mg-3 mg/Kg body weight, 0.2 ml, once/day for 8 weeks.
D3 group (i.e. high-fat diet+D3 intragastric administration group): fed with high-fat diet, free diet and drinking water. Intragastrically administrated with synthetic D3, 0.75 mg-3 mg/Kg body weight, 0.2 ml, once/day for 8 weeks.
D4 group (i.e. high-fat diet+D4 intragastric administration group): fed with high-fat diet, free diet and drinking water. Intragastrically administrated with synthetic D4, 0.75 mg-3 mg/Kg body weight, 0.2 ml, once/day for 8 weeks.
D5 group (i.e. high-fat diet+D5 intragastric administration group): fed with high-fat diet, free diet and drinking water. Intragastrically administrated with synthetic D5, 0.75 mg-3 mg/Kg body weight, 0.2 ml, once/day for 8 weeks.
D6 group (i.e. high-fat diet+D6 intragastric administration group): fed with high-fat diet, free diet and drinking water. Intragastrically administrated with synthetic D6, 0.75 mg-3 mg/Kg body weight, 0.2 ml, once/day for 8 weeks.
D7 group (i.e. high-fat diet+D7 intragastric administration group): fed with high-fat diet, free diet and drinking water. Intragastrically administrated with synthetic D7, 0.75 mg-3 mg/Kg body weight, 0.2 ml, once/day for 8 weeks.
D8 group (i.e. high-fat diet+D8 intragastric administration group): fed with high-fat diet, free diet and drinking water. Intragastrically administrated with synthetic D8, 0.75 mg-3 mg/Kg body weight, 0.2 ml, once/day for 8 weeks.
D9 group (i.e. high-fat diet+D9 intragastric administration group): fed with high-fat diet, free diet and drinking water. Intragastrically administrated with synthetic D9, 0.75 mg-3 mg/Kg body weight, 0.2 ml, once/day for 8 weeks.
D10 group (i.e. high-fat diet+D10 intragastric administration group): fed with high-fat diet, free diet and drinking water. Intragastrically administrated with synthetic D10, 0.75 mg-3 mg/Kg body weight, 0.2 ml, once/day for 8 weeks.
The feed intake was tracked every week. After the experiment, the mice were weighed and photographs were taken to compare the body size of the mice. After that, the mice were killed by cervical dislocation. […]

A. muciniphila = assay: qPCR of relative abundance of A. muciniphila in intestinal flora of SPF mice; format: in vivo; conditions: p<0.05
Description: In order to verify the changes in the relative abundance of A.muciniphila in the intestinal flora of mice fed with other HD, qPCR experiments were performed on the changes of intestinal flora in mice. Faecal bacterial DNA was extracted from the faeces of mice in the NC, HFD, D1, D2, D3, D5, D7, D8, D9 and D10 groups collected in the pre-SPF mice experiments and then the relative abundance of A. muciniphila was determined using qPCR.

[2] = Short-term feed intake experiment of SPF mice; format: in vivo, C57/B16J mice; conditions: after 8 weeks of treatment, starved one day then fed
Description: A total of 2 treatments were set up, each with one cage of C57/B16J mice, and the high-fat diet used was rodent feed (containing 60 kcal % fat, D12492), and each treatment was subjected to different feeding treatments, specifically as follows:
HFD group (i.e. high-fat diet group): fed with high-fat diet.
as §1, §2
D3 group (i.e. high-fat diet+D3 intragastric administration group): fed with high-fat diet, free diet and drinking water. […]
According to the above treatment, it was carried out for 8 weeks, and then within 1 week, the mice were starved for one day and then given feed, and the feed intake of the animals in the following day was recorded. That is, food weights were recorded every other day (4 separate measurements) and the average daily intake was determined for each 2-day period and calculated for each individual during the one-week measurement period. […]

[3] = cited from earlier work
[4] = Phase 3, overweight or obese adults, subcutaneous 2.4 mg/week

Row | Compound | subcutaneous and visceral fat weight (inguinal subcutaneous, epididymis, perirenal) vs HFD group [1] | weekly feed intake vs control HFD group [1] | body weight decrease compared with the HFD group [1] | relative abundance of A. muciniphila in the intestinal flora by qPCR (A. muciniphila) | also measured
1 | RTRYKRTGR [D1] | significantly lower than that of the HFD group | significant difference in feed intake | 11.62% | significantly increased | 
2 | RTCYKRTGR [D5] | significantly lower than that of the HFD group | significant difference in feed intake | 11.8% | significantly increased | 
3 | ATCYRRTGR [D4] |  | no significant effect | 3.55% |  | short-term feed intake vs HFD group [2]: no significant effect
4 | ATRYCRTGR [D6] |  | no significant effect | 3.78% |  | short-term feed intake vs HFD group [2]: no significant effect
5 | GTCYKRTGR [D2] | significantly lower than that of the HFD group | significant difference in feed intake | 9.45% | significantly increased | 
6 | C[C@H]1CNCCc2ccc(Cl)cc21 [Lorcaserin] |  |  |  |  | additional weight lost per year ([3]; obese subjects during the medication period): 3.2 to 3.6 kg
7 | GTRYKRTGR [D8] | significantly lower than that of the HFD group | significant difference in feed intake | 10.07% | significantly increased | 
8 | GTCYCRTGR [D7] | significantly lower than that of the HFD group | significant difference in feed intake | 8.08% | significantly increased | 
9 | semaglutide |  |  |  |  | average weight lost [3, 4]: 15.3 kg; average weight lost, of initial body weight [3, 4]: 14.9%; mean body mass index (BMI) drop [3, 4]: 5.54
10 | GTRYCRTGR [D10] | significantly lower than that of the HFD group | significant difference in feed intake | 11.06% | significantly increased | 
11 | RTCYCRTGR [D9] | significantly lower than that of the HFD group | significant difference in feed intake | 11.09% | significantly increased | 
12 | CCCCCCCCCCC[C@@H](C[C@@H]1OC(=O)[C@H]1CCCCCC)OC(=O)[C@H](CC(C)C)NC=O [orlistat, Orlistat] |  |  |  |  | body weight lost ([3]; obese patients, within 12 months): 2.9 to 3.4 kg
